Test results reported in US20230257367A1, “NOVEL THYROID HORMONE BETA RECEPTOR AGONIST” (Chengdu Kanghong Pharmaceutical Co., Ltd., priority 2020, published 2023).
Read-outs that look alike come from different tables or passages of the source.

Legend:
primary hepatocyte = assay: Hepatotoxicity detection in vitro (CellTiter-Glo); format: cell-based, human; details: primary hepatocytes
Experimental: Information of Primary Hepatocyte
Step 1: a test substance was prepared into a 200 mM DMSO stock solution, and then subjected to 3-times gradient continuous dilution by 7 concentrations, then 1.5 μL of each of the solutions of the 8 concentrations was added into 498.5 μL of incubation culture medium (with a composition referring to Table 5, directly mixed evenly) to prepare a working solution, and the incubation culture medium was preheated at 37° C. before preparation. DMSO was used as a solvent control. DMSO contents in the working solution and the solvent control were both 0.3 vol %. Concentrations of compounds were as follows:
Step 2: Plate Inoculation and Cell Culture
Second Step: Plate Inoculation and Culture of Cells
1) A tube of hepatocytes of the donor used in the experiment preserved at ultra-low temperature was taken, and the hepatocytes were ensured to be still frozen at low temperature before resuscitation. The hepatocytes were quickly placed in a water bath at 37° C. and gently shaken until all ice crystals were dispersed, and were transferred to a biosafety cabinet after spraying 70 vol % ethanol.
2) Contents of hepatocyte tubules were poured into a 50 mL centrifuge tube containing 50 mL of resuscitation culture medium (with a composition referring to Table 3, directly mixed evenly), and centrifuged at 80 g for 8 minutes. After centrifugation, the resuscitation culture medium was sucked out and an inoculation culture medium was added (with a composition referring to Table 4, directly mixed evenly). The cells were counted by AO/PI staining to obtain a cell suspension with a cell density of 0.2×10^6 cells per milliliter.
3) The cell suspension above was inoculated into a 96-well plate coated with collagen I, with 100 μL per well. The culture plate was placed in a 5% CO2 incubator with 95% relative humidity to culture for 4 hours to 6 hours.
4) After incubation for 4 hours to 6 hours, the state of the cells was observed under microscope. The culture plate was shaken gently, the inoculation culture medium was sucked out, and 100 μL of incubation culture medium was added into each well (with a composition referring to Table 5). A toxicity test could be carried out after culturing in the incubator for 18 hours to 20 hours.
5) Before administration, the morphology of the cells was observed under microscope. The culture medium in the culture plate was sucked out, and 100 μL of solvent control (DMSO), or test substance working solution was added into each well. Three parallel samples were tested under each condition.
6) The newly prepared working solution or solvent control was used for solution exchange every 24 hours after dosing.
After the working solution acted for 48 hours, the morphology of the cells was observed under microscope for later use.
Step 3: Cytotoxicity Detection
1) A CellTiter-Glo (Promega, article number G9243) reagent stored at −20° C. was melted in a water bath at 37° C.
2) After the cell culture plate obtained above was incubated for 48 hours, 50 μL of CellTiter-Glo solution was directly added into each experimental well.
3) The cell culture plate was vortexed at 400 rpm for 10 minutes, and incubated at room temperature to stabilize a luminescence signal.
After 10 minutes 100 μL of reaction solution was sucked from each well and transferred to a new white nontransparent-bottom flat plate (Corning 96-well plate Cat No. 3917). The
chemiluminescence value of each well was read by a microplate reader (a luminescence value of the white nontransparent-bottom flat plate was recorded as “a luminescence valueblank”; and a luminescence value of the solvent control was recorded as “a luminescence valuesolvent”).
Cell viability(%)=[(luminescence valueto-be-tested compound−luminescence valueblank)/(luminescence valuesolvent−luminescence valueblank)]×100% […]

[1] = PK experiment of cynomolgus monkeys; format: in vivo; details: cynomolgus monkey, plasma; for half-life / AUC(0-t) / Cmax: single dose; for half-life: male cynomolgus monkeys, read-out: Half-life period (T1/2) (converted); for AUC(0-t): read-out: Area under the curve AUC(0-t) in the case of administration; for Cmax: read-out: Peak concentration Cmax
Source text: The purpose of this experiment was to evaluate the pharmacokinetic behavior of the compound to be tested after single intravenous and intragastric administration, and to study the bioavailability after intragastric administration, providing animal experimental data for clinical studies.
Preparation of solutions for intravenous injection and intragastric administration: an appropriate amount of compound to be tested was accurately weighed, and mixed with a suitable solvent (5 vol % DMSO+10 vol % polyethylene glycol−15-hydroxystearate+85 vol % normal saline). After vortex, or ultrasound processing, a clear and transparent solution (the solution for intravenous injection administration), or a uniform suspension was obtained. The solution administrated by intravenous injection needed to be filtered through a 0.22 μm filter membrane
Experimental design: before the first dose the cynomolgus monkeys were divided into 2 groups by body weight with 3 male cynomolgus monkeys in each group, where animals in group 1 were given the compound to be tested (1 mg/kg) by single intravenous injection (IV); and animals in the 2rd group were administrated with the compound to be tested (5 mg/kg) by single intragastric administration (PO). The animals were weighed before administration, and dosages were calculated based on the weights of the animals.
Sample collection: a whole blood sample (about 0.2 mL) was collected at a specified time by venipuncture of an upper limb (or other suitable blood collection sites), and the actual blood collection time was recorded in test records. The acceptable error for one acquisition time point within 1 hour after administration is ±1 minute, and the acceptable error for other time points is ±5% of the theoretical time. All blood samples were immediately transferred to a labeled commercial centrifuge tube containing K2-EDTA. After blood sample collection, the blood sample was centrifuged at 4° C. and 3,200 g for 10 minutes, the supernatant plasma was sucked, quickly put in dry ice, and kept in a refrigerator at −70±10° C. for LC-MS/MS analysis. The collection time of both groups was 0.083 hour, 0.25 hour, 0.5 hour, 1 hour, 2 hours, 4 hours, 8 hours and 24 hours after administration.
Data processing: Area under the curve (AUC(0-t) and AUC(0-∞)), elimination half-life (T½), peak concentration (Cmax), time to reach maximum plasma concentration (Tmax), etc., were calculated by the non-compartment analysis module in Phoenix WinNonlin 7.0.

CC(C)c1nc(Oc2c(Cl)cc(-n3ncc(=O)[nH]c3=O)cc2Cl)ncc1O [KH06]
IC50 (primary hepatocyte; Homo sapiens, Hepatocyte, cell viability after 48 hours): 207 µM | Cell activity at the highest concentration (%) (primary hepatocyte; 48 hours, highest working solution concentration 600 μM): 4.50% | half-life ([1]; IV, 1 mg/kg): 9 h | half-life ([1]; PO, 5 mg/kg): 16.7 h | bioavailability ([1]; male, PO 5 mg/kg vs IV 1 mg/kg, read-out: Bioavailability (F)): 73% | AUC(0-t) ([1]; male, IV, 1 mg/kg): 48.8 µg·h/mL | Cmax ([1]; male, IV, 1 mg/kg): 20700 ng/mL | AUC(0-t) ([1]; male, PO, 5 mg/kg): 178 µg·h/mL | Cmax ([1]; male, PO, 5 mg/kg): 18300 ng/mL
